Data: patent US9079901B2, “Fused heterocyclic compounds as ion channel modulators” (Gilead Sciences, Inc., priority 2010, dated 2015)

Molecular target: wild-type human cardiac sodium channel, hNav1.5 (late sodium current) in HEK293 cells (Homo sapiens, UniProt Q14524)
Test: Late INa screening assay (automated whole-cell patch clamp, PatchXpress)
Type: cell-based
Conditions: HEK293, compound at 1 μM; late INa generated with 10 μM Tefluthrin (or 50 nM ATX II); HEK293 hNav1.5; read-out: Late INa 1 μM (percent block of late INa)
Procedure: The late sodium current (Late INa) and peak sodium current (Peak INa) assays are performed on an automated electrophysiology platform, PatchXpress 7000A (MDS Analytical Technologies, Sunnyvale, Calif.), which uses the whole cell patch clamp technique to measure currents through the cell membrane of up to 16 cells at a time. The assay uses an HEK293 (human embryonic kidney) cell line heterologously expressing the wild-type human cardiac sodium channel, hNav1.5, purchased from Millipore (Billerica, Mass.). No beta subunits were coexpressed with the Na channel alpha subunit. Cells are maintained with standard tissue culture procedures and stable channel expression is maintained with 400 μg/ml Geneticin in the culture medium. Cells isolated for use on PatchXpress are incubated for 5 minutes in Versene 1× and then for 2 minutes in 0.0125% Trypsin-EDTA (both at 37° C.) to ensure that 80-90% of the cells are single and not part of a cell cluster. Experiments are carried out at 24-27° C.
For both the Late INa and Peak INa assays, series resistance compensation is set to 50% and whole-cell compensation is performed automatically. Currents are low-pass filtered at 10 kHz and digitized at 31.25 kHz. Currents through open sodium channels are automatically recorded and stored in the DataXpress2 database (MDS Analytical Technologies, Sunnyvale, Calif.). Analysis is performed using DataXpress2 analysis software and data are compiled in Excel.
Compound stocks are routinely made in glass vials to 10 mM in dimethyl sulfoxide (DMSO). In some cases, when compounds are not soluble in DMSO, they are made in 100% ethanol. Stocks are sonicated as necessary. The extracellular solution for screening Late INa is composed of: 140 mM NaCl, 4 mM KCl, 1.8 mM CaCl2, 0.75 mM MgCl2, and 5 mM HEPES with pH adjusted to 7.4 using NaOH. The extracellular solution for screening Peak INa is composed of: 20 mM NaCl, 120 mM N-methyl-D glucamine, 4 mM KCl, 1.8 mM CaCl2, 0.75 mM MgCl2, and 5 mM HEPES with pH adjusted to 7.4 using HCl. The intracellular solution used to perfuse the inside of the cells for both the Late INa and Peak INa assays contains: 120 mM CsF, 20 mM CsCl, 5 mM EGTA, 5 mM HEPES and pH adjusted to 7.4 with CsOH. Compounds are diluted in extracellular solution to 10 μM in glass vials and then transferred to glass well plates before robotic addition to the cells. The 0Na extracellular solution used at the end of each experiment for the Late INa and Peak INa assays to measure baseline current contains: 140 mM N-methyl-D-glucamine; 4 mM KCl; 1.8 mM CaCl2; 0.75 mM MgCl2; 5 mM HEPES and pH was adjusted to 7.4 with HCl.
For the Late INa assay, sodium channels are activated every 10 seconds (0.1 Hz) by depolarizing the cell membrane to −20 mV for 250 milliseconds (ms) from a holding potential of −120 mV. In response to a −20 mV voltage step, typical Nav1.5 sodium currents activate rapidly to a peak negative current and then inactivate nearly completely within 3-4 ms.
All compounds are tested to determine their activity in blocking the late sodium current. Late INa current is generated by adding 10 μM Tefluthrin (pyrethroid) to the extracellular solution while recording Na currents. For some experiments, 50 nM ATX II (sea anemone toxin), another late INa activator, was used to generate the late component. Both activators generate late components that are large enough that block of the late component by compounds can be measured easily. For the purposes of the screening, late INa is defined as the mean current between 225 ms and 250 ms after stepping to −20 mV to activate Na channels. After establishing the whole cell recording configuration, late INa activators are added to each well 4 times over a 16-17 minute period so that the late component of the Na current reaches a stable value. Compounds are then added (typically at 10 μM), in the presence of late INa activator, with 3 additions over the course of 7 or 8 minutes. […]

wild-type human cardiac sodium channel, hNav1.5 (late sodium current) in HEK293 cells, sequence (Q14524 whole entry): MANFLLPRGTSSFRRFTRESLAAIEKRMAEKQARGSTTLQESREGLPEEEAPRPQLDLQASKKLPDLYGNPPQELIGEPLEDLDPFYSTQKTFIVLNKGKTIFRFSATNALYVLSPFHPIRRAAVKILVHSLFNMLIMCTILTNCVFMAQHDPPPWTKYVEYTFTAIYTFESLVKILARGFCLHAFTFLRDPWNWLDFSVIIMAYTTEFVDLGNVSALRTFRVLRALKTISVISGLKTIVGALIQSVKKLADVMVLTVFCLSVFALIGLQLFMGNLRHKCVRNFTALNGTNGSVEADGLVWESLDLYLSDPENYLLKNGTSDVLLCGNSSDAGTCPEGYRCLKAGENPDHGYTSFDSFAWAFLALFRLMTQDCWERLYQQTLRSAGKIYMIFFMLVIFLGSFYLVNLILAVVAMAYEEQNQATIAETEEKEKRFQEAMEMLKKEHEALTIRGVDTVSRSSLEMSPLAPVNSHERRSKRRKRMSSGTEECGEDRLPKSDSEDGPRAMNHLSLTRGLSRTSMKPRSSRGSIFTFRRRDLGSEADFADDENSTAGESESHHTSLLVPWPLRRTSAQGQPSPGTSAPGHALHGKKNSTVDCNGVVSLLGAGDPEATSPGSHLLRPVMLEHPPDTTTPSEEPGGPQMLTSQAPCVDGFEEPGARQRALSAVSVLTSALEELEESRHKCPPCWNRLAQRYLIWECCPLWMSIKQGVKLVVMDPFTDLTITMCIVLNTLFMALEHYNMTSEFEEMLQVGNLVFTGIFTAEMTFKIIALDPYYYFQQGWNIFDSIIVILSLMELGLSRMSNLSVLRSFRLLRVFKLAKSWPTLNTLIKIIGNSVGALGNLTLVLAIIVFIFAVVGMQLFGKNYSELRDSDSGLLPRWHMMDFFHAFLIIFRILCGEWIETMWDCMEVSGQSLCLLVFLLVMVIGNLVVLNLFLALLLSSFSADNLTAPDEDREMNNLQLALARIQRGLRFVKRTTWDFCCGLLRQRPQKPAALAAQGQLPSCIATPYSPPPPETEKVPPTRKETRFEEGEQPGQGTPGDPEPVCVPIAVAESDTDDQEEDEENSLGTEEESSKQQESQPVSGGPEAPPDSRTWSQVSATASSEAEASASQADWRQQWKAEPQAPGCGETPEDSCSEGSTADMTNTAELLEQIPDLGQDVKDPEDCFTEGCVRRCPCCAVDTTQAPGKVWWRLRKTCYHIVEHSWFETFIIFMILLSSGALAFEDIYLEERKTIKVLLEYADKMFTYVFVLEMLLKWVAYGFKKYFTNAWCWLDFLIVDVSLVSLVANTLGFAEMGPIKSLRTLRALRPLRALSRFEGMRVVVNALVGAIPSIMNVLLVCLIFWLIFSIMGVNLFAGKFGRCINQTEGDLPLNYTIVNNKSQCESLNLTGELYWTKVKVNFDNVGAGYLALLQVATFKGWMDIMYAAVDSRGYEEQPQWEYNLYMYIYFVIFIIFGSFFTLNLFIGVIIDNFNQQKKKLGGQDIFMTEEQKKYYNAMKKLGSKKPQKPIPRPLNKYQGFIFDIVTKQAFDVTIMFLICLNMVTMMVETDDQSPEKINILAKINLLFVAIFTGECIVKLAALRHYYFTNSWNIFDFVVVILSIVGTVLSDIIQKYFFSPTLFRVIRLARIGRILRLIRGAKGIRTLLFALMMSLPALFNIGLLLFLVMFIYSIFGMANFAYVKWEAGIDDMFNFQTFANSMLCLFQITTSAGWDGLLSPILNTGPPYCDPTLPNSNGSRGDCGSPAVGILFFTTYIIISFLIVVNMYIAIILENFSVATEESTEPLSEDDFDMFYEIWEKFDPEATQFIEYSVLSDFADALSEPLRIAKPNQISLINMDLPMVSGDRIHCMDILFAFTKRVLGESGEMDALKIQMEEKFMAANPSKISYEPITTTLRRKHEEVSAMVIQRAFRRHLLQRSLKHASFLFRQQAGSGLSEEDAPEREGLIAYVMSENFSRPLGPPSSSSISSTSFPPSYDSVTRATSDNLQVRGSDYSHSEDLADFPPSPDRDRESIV

**Q.** How did the inhibition at 1 µM turn out when `O=c1n(CCc2c(F)cccc2F)nc2ccc(-c3ccc(OC(F)(F)F)cc3)cn12` [compound 63, 2-(2,6-difluorophenethyl)-6-(4-(trifluoromethoxy)phenyl)-[1,2,4]triazolo[4,3-a]pyridin-3(2H)-one] was run?
**A.** Its inhibition at 1 µM is 46.9%.

**Q.** Which inhibition at 1 µM does the source give for `O=c1n(CCOc2nccc(C3CC3)n2)nc2ccc(-c3ccc(OC(F)(F)F)cc3)cn12` [compound 90, 2-(2-(4-cyclopropylpyrimidin-2-yloxy)ethyl)-6-(4-(trifluoromethoxy)phenyl)-[1,2,4]triazolo[4,3-a]pyridin-3(2H)-one] here?
**A.** The inhibition at 1 µM was 36.3%.

**Q.** `O=c1n(Cc2nc(C3CC3)co2)nc2ccc(-c3ccc(OC(F)(F)F)cc3)cn12` [compound 193, 2-((4-cyclopropyloxazol-2-yl)methyl)-6-(4-(trifluoromethoxy)phenyl)-[1,2,4]triazolo[4,3-a]pyridin-3(2H)-one] was tested. Which inhibition at 1 µM did it give?
**A.** The inhibition at 1 µM was 33.8%.

**Q.** `O=c1n(CCCOc2ccccc2F)nc2ccc(-c3ccc(OC(F)(F)F)cc3)cn12` [compound 51, 2-(3-(2-fluorophenoxy)propyl)-6-(4-(trifluoromethoxy)phenyl)-[1,2,4]triazolo[4,3-a]pyridin-3(2H)-one] was tested. Which inhibition at 1 µM did it give?
**A.** The inhibition at 1 µM was 25.6%.

**Q.** With `O=c1n(CCc2ncccn2)nc2ccc(-c3ccc(OC(F)(F)F)cc3)cn12` [compound 111, 2-(2-(pyrimidin-2-yl)ethyl)-6-(4-(trifluoromethoxy)phenyl)-[1,2,4]triazolo[4,3-a]pyridin-3(2H)-one] as the compound, how does the inhibition at 1 µM read?
**A.** The inhibition at 1 µM was 18.6%.

**Q.** `Cc1cnc(Cn2nc3ccc(-c4ccc(Cl)cc4)cn3c2=O)o1` [compound 195, 6-(4-chlorophenyl)-2-((5-methyloxazol-2-yl)methyl)-[1,2,4]triazolo[4,3-a]pyridin-3(2H)-one] was tested. Which inhibition at 1 µM did it give?
**A.** Its inhibition at 1 µM is 31.2%.

**Q.** `O=c1n(CCc2ccccn2)nc2ccc(-c3ccc(OC(F)(F)F)cc3)cn12` [compound 36, 2-(2-(pyridin-2-yl)ethyl)-6-(4-(trifluoromethoxy)phenyl)-[1,2,4]triazolo[4,3-a]pyridin-3(2H)-one] was tested. Which inhibition at 1 µM did it give?
**A.** The inhibition at 1 µM was 48.4%.

**Q.** `O=c1n(CCc2ccncn2)nc2ccc(-c3ccc(OC(F)(F)F)cc3)cn12` [compound 113, 2-(2-(pyrimidin-4-yl)ethyl)-6-(4-(trifluoromethoxy)phenyl)-[1,2,4]triazolo[4,3-a]pyridin-3(2H)-one] was tested. Which inhibition at 1 µM did it give?
**A.** Its inhibition at 1 µM is 17.8%.

**Q.** `Cc1nc(Cn2nc3ccc(-c4ccc(Oc5ccc(F)cc5)cc4)cn3c2=O)no1` [compound 140, 6-(4-(4-fluorophenoxy)phenyl)-2-((5-methyl-1,2,4-oxadiazol-3-yl)methyl)-[1,2,4]triazolo[4,3-a]pyridin-3(2H)-one] was tested. Which inhibition at 1 µM did it give?
**A.** Its inhibition at 1 µM is 60.6%.

**Q.** `COc1ccccc1-c1nc(Cn2nc3ccc(-c4ccc(OC(F)(F)F)cc4)cn3c2=O)no1` [compound 11, 2-((5-(2-methoxyphenyl)-1,2,4-oxadiazol-3-yl)methyl)-6-(4-(trifluoromethoxy)phenyl)-[1,2,4]triazolo[4,3-a]pyridin-3(2H)-one] was tested. Which inhibition at 1 µM did it give?
**A.** Its inhibition at 1 µM is 22%.

**Q.** Which inhibition at 1 µM does the source give for `O=c1n(CCn2cnc(-c3ccccc3)c2)nc2ccc(-c3ccc(OC(F)(F)F)cc3)cn12` [compound 45, 2-(2-(4-phenyl-1H-imidazol-1-yl)ethyl)-6-(4-(trifluoromethoxy)phenyl)-[1,2,4]triazolo[4,3-a]pyridin-3(2H)-one] here?
**A.** Its inhibition at 1 µM is 11.8%.

**Q.** For `Cc1nccnc1CCn1nc2ccc(-c3ccc(OC(F)(F)F)cc3)cn2c1=O` [compound 117, 2-(2-(3-methylpyrazin-2-yl)ethyl)-6-(4-(trifluoromethoxy)phenyl)-[1,2,4]triazolo[4,3-a]pyridin-3(2H)-one], which inhibition at 1 µM is on record?
**A.** The inhibition at 1 µM was 18.2%.

**Q.** Which inhibition at 1 µM does the source give for `O=c1n(CCCOc2ccccc2)nc2ccc(-c3ccc(OC(F)(F)F)cc3)cn12` [compound 24, 2-(3-phenoxypropyl)-6-(4-(trifluoromethoxy)phenyl)-[1,2,4]triazolo[4,3-a]pyridin-3(2H)-one] here?
**A.** Its inhibition at 1 µM is 25%.

**Q.** With `COc1cc(F)ccc1OCCCn1nc2ccc(-c3ccc(OC(F)(F)F)cc3)cn2c1=O` [compound 67, 2-(3-(4-fluoro-2-methoxyphenoxy)propyl)-6-(4-(trifluoromethoxy)phenyl)-[1,2,4]triazolo[4,3-a]pyridin-3(2H)-one] as the compound, how does the inhibition at 1 µM read?
**A.** Its inhibition at 1 µM is 19.2%.

**Q.** For `Cc1ccc(OCCn2nc3ccc(-c4ccc(OC(F)(F)F)cc4)cn3c2=O)cc1` [compound 75, 2-(2-(p-tolyloxy)ethyl)-6-(4-(trifluoromethoxy)phenyl)-[1,2,4]triazolo[4,3-a]pyridin-3(2H)-one], which inhibition at 1 µM is on record?
**A.** The inhibition at 1 µM was 25.7%.

**Q.** How did the inhibition at 1 µM turn out when `Cc1cc(-c2ccc(OC(F)(F)F)cc2)cn2c(=O)[nH]nc12` [compound 196, 8-methyl-6-(4-(trifluoromethoxy)phenyl)-[1,2,4]triazolo[4,3-a]pyridin-3(2H)-one] was run?
**A.** The inhibition at 1 µM was 38.3%.

**Q.** With `Cc1cc(Cn2nc3ccc(-c4ccc(OC(F)(F)F)cc4)cn3c2=O)no1` [compound 5, 2-((5-methylisoxazol-3-yl)methyl)-6-(4-(trifluoromethoxy)phenyl)-[1,2,4]triazolo[4,3-a]pyridin-3(2H)-one] as the compound, how does the inhibition at 1 µM read?
**A.** The inhibition at 1 µM was 28.3%.

**Q.** Which inhibition at 1 µM does the source give for `COCc1noc(Cn2nc3ccc(-c4ccc(OC(F)(F)F)cc4)cn3c2=O)n1` [compound 153, 2-((3-(methoxymethyl)-1,2,4-oxadiazol-5-yl)methyl)-6-(4-(trifluoromethoxy)phenyl)-[1,2,4]triazolo[4,3-a]pyridin-3(2H)-one] here?
**A.** Its inhibition at 1 µM is 23.2%.

**Q.** `Cc1noc(Cn2nc3ccc(-c4ccc(OC(F)(F)F)cc4)cn3c2=O)n1` [compound 1, 2-((3-methyl-1,2,4-oxadiazol-5-yl)methyl)-6-(4-(trifluoromethoxy)phenyl)-[1,2,4]triazolo[4,3-a]pyridin-3(2H)-one] was tested. Which inhibition at 1 µM did it give?
**A.** The inhibition at 1 µM was 27.5%.

**Q.** Which inhibition at 1 µM does the source give for `O=c1n(Cc2nc(-c3ccccc3Cl)no2)nc2ccc(-c3ccc(OC(F)(F)F)cc3)cn12` [compound 33, 2-((3-(2-chlorophenyl)-1,2,4-oxadiazol-5-yl)methyl)-6-(4-(trifluoromethoxy)phenyl)-[1,2,4]triazolo[4,3-a]pyridin-3(2H)-one] here?
**A.** The inhibition at 1 µM was 20.5%.

**Q.** `O=c1n(CCOc2ccc(Cl)cc2)nc2ccc(-c3ccc(OC(F)(F)F)cc3)cn12` [compound 40, 2-(2-(4-chlorophenoxy)ethyl)-6-(4-(trifluoromethoxy)phenyl)-[1,2,4]triazolo[4,3-a]pyridin-3(2H)-one] was tested. Which inhibition at 1 µM did it give?
**A.** The inhibition at 1 µM was 34.3%.

**Q.** `Cc1noc(Cn2nc3ccc(-c4cc(F)c(Oc5ccccc5)c(F)c4)cn3c2=O)n1` [compound 127, 6-(3,5-difluoro-4-phenoxyphenyl)-2-((3-methyl-1,2,4-oxadiazol-5-yl)methyl)-[1,2,4]triazolo[4,3-a]pyridin-3(2H)-one] was tested. Which inhibition at 1 µM did it give?
**A.** The inhibition at 1 µM was 21.5%.

**Q.** With `O=c1n(CCc2cc(C3CC3)ccn2)nc2ccc(-c3ccc(OC(F)(F)F)cc3)cn12` [compound 57, 2-(2-(4-cyclopropylpyridin-2-yl)ethyl)-6-(4-(trifluoromethoxy)phenyl)-[1,2,4]triazolo[4,3-a]pyridin-3(2H)-one] as the compound, how does the inhibition at 1 µM read?
**A.** Its inhibition at 1 µM is 20.7%.

**Q.** For `Cc1noc(Cn2nc3ccc(-c4ccc([Si](C)(C)C)cc4)cn3c2=O)n1` [compound 110, 2-((3-methyl-1,2,4-oxadiazol-5-yl)methyl)-6-(4-(trimethylsilyl)phenyl)-[1,2,4]triazolo[4,3-a]pyridin-3(2H)-one], which inhibition at 1 µM is on record?
**A.** The inhibition at 1 µM was 44.3%.

**Q.** With `O=c1n(CC(COc2ccccc2Cl)Oc2ncccn2)nc2ccc(-c3ccc(OC(F)(F)F)cc3)cn12` (stereo not shown) [compound 89, 2-(3-(2-chlorophenoxy)-2-(pyrimidin-2-yloxy)propyl)-6-(4-(trifluoromethoxy)phenyl)-[1,2,4]triazolo[4,3-a]pyridin-3(2H)-one] as the compound, how does the inhibition at 1 µM read?
**A.** Its inhibition at 1 µM is 16%.
